One data set has as its system arteria saphena rings. Kind of data set: Vasorelaxant effect in vitro (phenylephrine-contracted rabbit arteria saphena rings). Format: cell-based, Rabbits. Particulars: Oryctolagus cuniculus, contraction by phenylephrine, 37° C., 0.1% DMSO, read-out: IC50, concentration necessary to reduce the height of the contraction control value by 50%. The protocol: Vasorelaxant Effect in vitro
Rabbits are anesthetized or killed by intravenous injection of thiopental sodium (about 50 mg/kg) and exsanguinated. The arteria saphena is removed and divided into rings 3 mm wide. The individual rings are in each case mounted on a pair of hooks of triangular shape, open at the ends and made of special wire (Remanium®) having a diameter of 0.3 mm. Under pretension, each ring is introduced into a 5 ml organ bath containing carbogen-gassed Krebs-Henseleit solution at 37° C. with the following composition (mM): NaCl: […]; KCl: 4.8; CaCl2×2H2O: 1; MgSO4×7H2O: 1.4; KH2PO4: 1.2; NaHCO3: 25; glucose: 10; bovine serum albumin: 0.001%. The force of contraction is detected with Statham UC2 cells, amplified and digitized via A/D converters (DAS-1802 HC, Keithley Instruments, Munich) and recorded in parallel on chart recorders. Contractions are generated by adding phenylephrine.
After several (generally 4) control cycles, the substance to be investigated is added in each further run in increasing dosage, and the height of the contraction reached under the influence of the test substance is compared with the height of the contraction reached in the last preceding run. The concentration necessary to reduce the height of the control value by 50% (IC50) is calculated from this. The standard application volume is 5 μl. The DMSO content in the bath solution corresponds to 0.1%.

Drawing on patent publication US7067694B2, “Halogen-substituted amino dicarboxylic acid derivatives as medicaments for treating cardiovascular diseases” (Bayer Aktiengesellschaft, priority 2001, dated 2006), this text covers melting point and IC50 for five molecules.

Where only a bound is given, the exact number is not on record here.

For the molecule `O=C(O)CCCCN(CCc1ccc(F)cc1OCc1ccc(C2CCCCC2)cc1)Cc1ccc(C(=O)O)cc1` [Example 1, 4-{[(4-carboxybutyl)(2-{2-[(4-cyclohexylbenzyl)oxy]-4-fluorophenyl}ethyl)amino]methyl}benzoic acid], the melting point is greater than 250 °C. Further, the IC50 with arteria saphena rings stood at 1.1 nM.
As to `O=C(O)CCCCN(CCc1cc(F)ccc1OCc1ccc(C2CCCCC2)cc1)Cc1ccc(C(=O)O)cc1` [Example 2], the IC50 with arteria saphena rings worked out at 1.5 nM.
On the same count and under the same terms, with `O=C(O)CCCCN(CCc1cc(Cl)ccc1OCc1ccc(-c2ccc(C(F)(F)F)cc2)cc1)Cc1ccc(C(=O)O)cc1` [Example 3] the figure was 1 nM.
With `O=C(O)CCCCN(CCc1cc(Cl)ccc1OCc1ccc(-c2ccc(Cl)cc2)cc1)Cc1ccc(C(=O)O)cc1` [Example 6], in the data set on arteria saphena rings, the IC50 was found to be 8.1 nM.
For `COc1ccc(-c2ccc(COc3ccc(Cl)cc3CCN(CCCCC(=O)O)Cc3ccc(C(=O)O)cc3)c(Cl)c2)cc1` [Example 9], the IC50 in the data set with arteria saphena rings turned out to be 8.3 nM.

As a reminder, the melting point is the temperature of the solid-liquid transition.
